Measurements reported in ChEMBL document CHEMBL5291721, “A preclinical secondary pharmacology resource illuminates target-adverse drug reaction associations of marketed drugs” (Nat Commun, 2023).

Tests used:
[1] = target: T1, B2 bradykinin receptor (Homo sapiens, UniProt P30411)
T1 sequence (P30411 whole entry): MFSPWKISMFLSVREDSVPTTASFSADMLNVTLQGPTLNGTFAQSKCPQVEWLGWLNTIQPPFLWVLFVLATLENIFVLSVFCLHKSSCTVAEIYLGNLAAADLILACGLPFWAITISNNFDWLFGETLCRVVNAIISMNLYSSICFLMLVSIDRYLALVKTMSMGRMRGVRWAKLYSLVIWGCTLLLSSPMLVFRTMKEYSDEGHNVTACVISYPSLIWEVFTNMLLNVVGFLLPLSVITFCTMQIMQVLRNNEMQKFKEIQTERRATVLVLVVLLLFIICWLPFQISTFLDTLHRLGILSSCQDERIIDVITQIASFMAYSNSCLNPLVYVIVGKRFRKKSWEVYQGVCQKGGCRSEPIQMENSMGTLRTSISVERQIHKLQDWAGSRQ

[2] = target: Voltage-dependent L-type calcium channel subunit alpha-1C (Rattus norvegicus, UniProt P22002); type: functional
Chain of Voltage-dependent L-type calcium channel subunit alpha-1C (P22002 whole entry): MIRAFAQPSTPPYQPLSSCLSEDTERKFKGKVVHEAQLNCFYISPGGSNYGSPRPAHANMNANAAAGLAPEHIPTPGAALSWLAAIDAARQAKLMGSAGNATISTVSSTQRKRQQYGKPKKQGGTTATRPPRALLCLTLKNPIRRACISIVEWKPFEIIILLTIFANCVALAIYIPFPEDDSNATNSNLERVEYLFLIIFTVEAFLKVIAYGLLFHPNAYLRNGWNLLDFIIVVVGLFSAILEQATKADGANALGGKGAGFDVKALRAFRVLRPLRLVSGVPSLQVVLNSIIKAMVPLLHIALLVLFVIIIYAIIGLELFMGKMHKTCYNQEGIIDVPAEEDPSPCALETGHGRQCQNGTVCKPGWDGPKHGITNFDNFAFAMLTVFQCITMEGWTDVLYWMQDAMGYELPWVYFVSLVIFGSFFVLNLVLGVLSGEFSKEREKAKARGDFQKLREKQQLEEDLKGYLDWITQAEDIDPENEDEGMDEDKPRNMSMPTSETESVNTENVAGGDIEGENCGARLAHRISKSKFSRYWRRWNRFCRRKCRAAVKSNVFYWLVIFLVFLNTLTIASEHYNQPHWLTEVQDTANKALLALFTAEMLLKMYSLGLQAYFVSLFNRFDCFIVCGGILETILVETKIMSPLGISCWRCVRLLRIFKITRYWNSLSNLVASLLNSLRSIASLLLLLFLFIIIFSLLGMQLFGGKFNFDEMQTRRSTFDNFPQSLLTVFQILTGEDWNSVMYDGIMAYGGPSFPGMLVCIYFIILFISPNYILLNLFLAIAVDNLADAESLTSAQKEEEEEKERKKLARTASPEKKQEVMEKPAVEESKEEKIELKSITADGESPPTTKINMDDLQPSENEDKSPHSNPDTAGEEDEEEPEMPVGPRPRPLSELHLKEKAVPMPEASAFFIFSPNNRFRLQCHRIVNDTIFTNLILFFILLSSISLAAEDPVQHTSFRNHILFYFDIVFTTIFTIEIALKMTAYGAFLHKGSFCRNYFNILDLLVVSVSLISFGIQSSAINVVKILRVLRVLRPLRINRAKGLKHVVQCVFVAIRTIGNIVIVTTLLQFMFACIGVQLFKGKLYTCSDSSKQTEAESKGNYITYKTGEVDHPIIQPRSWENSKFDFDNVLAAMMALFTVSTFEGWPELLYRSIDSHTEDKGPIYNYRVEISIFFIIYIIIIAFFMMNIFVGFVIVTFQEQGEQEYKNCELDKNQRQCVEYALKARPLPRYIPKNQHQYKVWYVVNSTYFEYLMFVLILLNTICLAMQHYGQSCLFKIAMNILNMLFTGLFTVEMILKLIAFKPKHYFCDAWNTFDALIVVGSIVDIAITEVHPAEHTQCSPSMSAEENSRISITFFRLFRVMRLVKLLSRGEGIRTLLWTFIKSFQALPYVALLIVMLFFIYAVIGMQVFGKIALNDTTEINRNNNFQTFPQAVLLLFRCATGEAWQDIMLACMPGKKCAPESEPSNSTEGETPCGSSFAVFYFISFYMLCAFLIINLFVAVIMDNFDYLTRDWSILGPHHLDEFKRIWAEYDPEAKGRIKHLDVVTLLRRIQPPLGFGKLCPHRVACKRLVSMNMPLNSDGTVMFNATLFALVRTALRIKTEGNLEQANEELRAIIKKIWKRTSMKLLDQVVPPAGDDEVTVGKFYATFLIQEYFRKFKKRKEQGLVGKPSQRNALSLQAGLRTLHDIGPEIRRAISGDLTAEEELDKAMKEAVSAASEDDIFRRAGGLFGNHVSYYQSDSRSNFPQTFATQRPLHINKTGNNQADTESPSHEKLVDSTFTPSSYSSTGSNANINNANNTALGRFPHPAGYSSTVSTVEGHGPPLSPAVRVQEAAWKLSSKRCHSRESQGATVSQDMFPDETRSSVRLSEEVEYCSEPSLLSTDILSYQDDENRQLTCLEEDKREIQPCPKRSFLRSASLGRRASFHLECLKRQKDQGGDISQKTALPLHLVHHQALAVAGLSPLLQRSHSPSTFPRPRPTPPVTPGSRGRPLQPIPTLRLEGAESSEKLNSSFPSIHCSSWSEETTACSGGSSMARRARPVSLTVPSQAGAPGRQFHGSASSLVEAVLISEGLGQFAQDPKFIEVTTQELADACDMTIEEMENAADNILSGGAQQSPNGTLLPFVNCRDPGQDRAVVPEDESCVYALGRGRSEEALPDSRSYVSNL

[3] = target: T2, Muscarinic acetylcholine receptor M1 (Homo sapiens, UniProt P11229); type: functional
T2 sequence (P11229 whole entry): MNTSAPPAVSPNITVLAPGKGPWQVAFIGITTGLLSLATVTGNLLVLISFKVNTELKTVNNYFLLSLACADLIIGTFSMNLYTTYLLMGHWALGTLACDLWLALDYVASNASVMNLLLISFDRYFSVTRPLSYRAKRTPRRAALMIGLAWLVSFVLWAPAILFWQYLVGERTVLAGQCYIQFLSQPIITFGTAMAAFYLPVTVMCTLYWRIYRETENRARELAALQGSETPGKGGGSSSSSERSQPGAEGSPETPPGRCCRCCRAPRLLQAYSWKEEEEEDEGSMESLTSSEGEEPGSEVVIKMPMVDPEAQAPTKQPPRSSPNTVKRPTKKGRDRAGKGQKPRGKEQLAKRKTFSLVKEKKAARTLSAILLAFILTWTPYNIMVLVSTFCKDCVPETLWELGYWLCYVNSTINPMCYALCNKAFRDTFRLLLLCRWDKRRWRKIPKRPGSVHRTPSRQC

[4] = target: Neuronal acetylcholine receptor subunit alpha-4 (Homo sapiens, UniProt P43681)
Chain of Neuronal acetylcholine receptor subunit alpha-4 (P43681 whole entry): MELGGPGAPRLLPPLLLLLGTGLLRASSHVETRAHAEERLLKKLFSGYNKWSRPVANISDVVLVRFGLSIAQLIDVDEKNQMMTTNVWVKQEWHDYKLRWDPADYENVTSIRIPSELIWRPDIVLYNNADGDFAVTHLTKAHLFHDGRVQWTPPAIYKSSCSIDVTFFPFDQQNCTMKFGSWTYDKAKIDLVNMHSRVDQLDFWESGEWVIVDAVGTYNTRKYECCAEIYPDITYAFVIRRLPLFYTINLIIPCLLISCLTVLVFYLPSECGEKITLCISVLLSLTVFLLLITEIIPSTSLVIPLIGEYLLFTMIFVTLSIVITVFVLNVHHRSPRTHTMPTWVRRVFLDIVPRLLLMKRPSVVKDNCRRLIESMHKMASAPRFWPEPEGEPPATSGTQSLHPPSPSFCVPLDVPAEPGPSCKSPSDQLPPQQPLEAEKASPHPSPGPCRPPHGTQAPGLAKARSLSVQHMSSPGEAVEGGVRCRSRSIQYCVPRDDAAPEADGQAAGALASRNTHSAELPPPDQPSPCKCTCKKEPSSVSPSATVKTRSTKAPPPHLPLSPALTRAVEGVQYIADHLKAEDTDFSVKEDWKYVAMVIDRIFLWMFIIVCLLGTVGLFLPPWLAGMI

[5] = target: Gamma-aminobutyric acid receptor subunit alpha-1 (Rattus norvegicus, UniProt P62813)
Chain of Gamma-aminobutyric acid receptor subunit alpha-1 (P62813 whole entry): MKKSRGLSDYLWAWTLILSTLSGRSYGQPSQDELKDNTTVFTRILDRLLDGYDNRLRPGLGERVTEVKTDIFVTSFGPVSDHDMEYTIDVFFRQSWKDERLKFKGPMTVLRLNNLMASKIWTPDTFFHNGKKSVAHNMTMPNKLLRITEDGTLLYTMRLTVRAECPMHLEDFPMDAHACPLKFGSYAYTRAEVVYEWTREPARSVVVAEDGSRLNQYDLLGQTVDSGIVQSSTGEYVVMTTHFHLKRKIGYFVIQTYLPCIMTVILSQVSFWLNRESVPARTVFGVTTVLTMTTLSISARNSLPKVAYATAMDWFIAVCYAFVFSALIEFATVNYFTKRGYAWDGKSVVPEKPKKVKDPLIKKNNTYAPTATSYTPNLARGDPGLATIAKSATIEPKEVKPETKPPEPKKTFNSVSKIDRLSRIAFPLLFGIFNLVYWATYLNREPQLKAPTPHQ

[6] = target: Histamine H1 receptor (Homo sapiens, UniProt P35367)
[7] = target: T3, 5-hydroxytryptamine receptor 1A (Homo sapiens, UniProt P08908); type: functional, cell-based
T3 sequence (P08908 whole entry): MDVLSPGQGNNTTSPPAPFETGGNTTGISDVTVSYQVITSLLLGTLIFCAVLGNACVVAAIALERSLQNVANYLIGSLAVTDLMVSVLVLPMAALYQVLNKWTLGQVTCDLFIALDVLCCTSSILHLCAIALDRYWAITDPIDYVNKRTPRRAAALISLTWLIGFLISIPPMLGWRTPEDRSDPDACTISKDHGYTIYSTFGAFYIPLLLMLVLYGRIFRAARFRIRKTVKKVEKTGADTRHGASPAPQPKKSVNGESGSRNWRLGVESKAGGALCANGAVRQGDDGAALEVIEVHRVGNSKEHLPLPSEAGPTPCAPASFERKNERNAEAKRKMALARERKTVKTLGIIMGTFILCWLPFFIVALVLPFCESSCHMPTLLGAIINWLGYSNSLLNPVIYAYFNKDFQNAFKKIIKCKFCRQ

[8] = target: 5-hydroxytryptamine receptor 2B (Homo sapiens, UniProt P41595); type: functional, cell-based
[9] = target: Voltage-gated inwardly rectifying potassium channel KCNH2 (Homo sapiens, UniProt Q12809); type: functional; settings: read-out: AC50
Chain of Voltage-gated inwardly rectifying potassium channel KCNH2 (Q12809 whole entry): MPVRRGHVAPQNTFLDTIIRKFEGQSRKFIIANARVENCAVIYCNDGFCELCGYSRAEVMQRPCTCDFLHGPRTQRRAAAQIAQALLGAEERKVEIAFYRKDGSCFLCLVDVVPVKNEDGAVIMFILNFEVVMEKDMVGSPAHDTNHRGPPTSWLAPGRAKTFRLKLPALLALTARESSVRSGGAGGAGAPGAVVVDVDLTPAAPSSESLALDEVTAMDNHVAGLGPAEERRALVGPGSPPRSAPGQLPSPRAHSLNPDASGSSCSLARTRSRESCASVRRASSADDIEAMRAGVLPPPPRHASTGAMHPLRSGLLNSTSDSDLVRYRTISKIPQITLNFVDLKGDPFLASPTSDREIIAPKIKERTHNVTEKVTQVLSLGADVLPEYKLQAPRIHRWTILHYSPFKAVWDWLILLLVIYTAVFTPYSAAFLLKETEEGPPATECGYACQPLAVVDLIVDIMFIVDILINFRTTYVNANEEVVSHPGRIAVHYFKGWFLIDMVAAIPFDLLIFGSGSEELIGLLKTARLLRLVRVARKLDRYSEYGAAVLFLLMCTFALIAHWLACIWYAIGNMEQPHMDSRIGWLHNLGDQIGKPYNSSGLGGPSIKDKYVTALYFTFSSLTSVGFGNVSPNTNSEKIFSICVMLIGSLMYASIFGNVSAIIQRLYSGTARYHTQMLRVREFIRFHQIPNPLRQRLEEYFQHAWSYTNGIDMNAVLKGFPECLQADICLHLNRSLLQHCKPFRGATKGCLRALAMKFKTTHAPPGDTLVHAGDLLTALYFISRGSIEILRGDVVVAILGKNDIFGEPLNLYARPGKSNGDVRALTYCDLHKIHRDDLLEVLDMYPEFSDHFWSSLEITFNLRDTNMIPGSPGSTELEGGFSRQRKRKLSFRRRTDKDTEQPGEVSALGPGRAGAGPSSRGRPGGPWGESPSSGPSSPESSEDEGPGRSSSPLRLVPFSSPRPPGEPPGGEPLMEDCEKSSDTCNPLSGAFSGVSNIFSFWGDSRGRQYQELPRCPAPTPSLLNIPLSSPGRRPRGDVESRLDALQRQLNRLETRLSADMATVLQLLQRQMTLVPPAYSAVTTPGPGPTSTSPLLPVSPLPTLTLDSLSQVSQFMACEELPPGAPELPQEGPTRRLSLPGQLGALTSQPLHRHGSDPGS

[10] = target: Melanocortin receptor 3 (Homo sapiens, UniProt P41968)
Chain of Melanocortin receptor 3 (P41968 whole entry): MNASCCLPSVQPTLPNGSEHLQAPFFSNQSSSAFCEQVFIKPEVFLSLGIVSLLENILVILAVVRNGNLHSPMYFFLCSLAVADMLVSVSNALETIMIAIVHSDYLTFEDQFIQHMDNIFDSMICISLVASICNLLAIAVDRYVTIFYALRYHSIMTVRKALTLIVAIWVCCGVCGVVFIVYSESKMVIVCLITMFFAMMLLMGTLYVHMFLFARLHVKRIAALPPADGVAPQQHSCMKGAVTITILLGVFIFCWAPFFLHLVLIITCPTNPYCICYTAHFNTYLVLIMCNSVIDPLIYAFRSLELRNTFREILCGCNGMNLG

[11] = target: T4, Prostaglandin G/H synthase 1 (Rattus norvegicus, UniProt Q63921); type: functional
T4 sequence (Q63921 whole entry): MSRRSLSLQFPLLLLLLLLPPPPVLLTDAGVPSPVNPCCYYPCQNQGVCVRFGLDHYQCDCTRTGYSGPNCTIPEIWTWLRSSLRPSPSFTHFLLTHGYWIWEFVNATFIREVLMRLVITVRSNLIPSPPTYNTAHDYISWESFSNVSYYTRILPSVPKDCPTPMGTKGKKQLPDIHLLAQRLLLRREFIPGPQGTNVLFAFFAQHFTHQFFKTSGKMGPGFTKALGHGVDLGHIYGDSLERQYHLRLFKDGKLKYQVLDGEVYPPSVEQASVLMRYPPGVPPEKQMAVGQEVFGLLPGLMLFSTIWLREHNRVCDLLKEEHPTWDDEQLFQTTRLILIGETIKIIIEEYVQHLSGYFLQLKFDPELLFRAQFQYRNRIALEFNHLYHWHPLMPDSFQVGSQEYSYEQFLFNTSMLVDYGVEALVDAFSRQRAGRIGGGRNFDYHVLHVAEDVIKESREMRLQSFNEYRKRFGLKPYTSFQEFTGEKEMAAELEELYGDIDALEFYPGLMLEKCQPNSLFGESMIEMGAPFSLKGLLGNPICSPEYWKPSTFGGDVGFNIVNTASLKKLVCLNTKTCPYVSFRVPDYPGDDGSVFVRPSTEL

[12] = target: Sodium-dependent dopamine transporter (Homo sapiens, UniProt Q01959)
Also: assay procedure not described here.

Row | SMILES | AC50 [1] | AC50 [2] | AC50 [3] | AC50 [4] | AC50 [5] | AC50 [6] | AC50 [7] | AC50 [8] | AC50 [9] | AC50 [10] | AC50 [11] | AC50 [12]
1 | C=CCC1(C(C)CC)C(=O)NC(=O)NC1=O (centres undefined) [TALBUTAL] | > 10 µM | > 10 µM | > 10 µM | > 10 µM | > 10 µM | > 10 µM | > 10 µM | > 10 µM | > 30 µM | > 10 µM | > 10 µM | > 10 µM
2 | CC1(C)O[C@@H]2C[C@H]3[C@@H]4CCC5=CC(=O)C=C[C@]5(C)[C@H]4[C@@H](O)C[C@]3(C)[C@]2(C(=O)CO)O1 [DESONIDE] | > 10 µM | > 10 µM | > 10 µM | > 10 µM | > 10 µM | > 10 µM | > 10 µM | > 10 µM | > 30 µM | > 10 µM | > 10 µM | > 10 µM
3 | COC(=O)[C@H]1[C@H]2C[C@@H]3c4[nH]c5cc(OC)ccc5c4CCN3C[C@H]2C[C@@H](OC(=O)/C=C/c2cc(OC)c(OC)c(OC)c2)[C@@H]1OC [RESCINNAMINE] | > 10 µM | 5.16 µM | > 10 µM | > 10 µM | > 10 µM | > 10 µM | > 10 µM | > 10 µM | 0.988 µM | > 10 µM | 11.6 µM | 18.9 µM
4 | Cc1cc(O)c(C(=O)N[C@@H](C(=O)N[C@@H]2C(=O)N3C(C(=O)O)=C(CSc4nnnn4C)CS[C@H]23)c2ccc(O)cc2)cn1 [CEFPIRAMIDE] | > 30 µM | > 30 µM | > 30 µM | > 30 µM | > 30 µM | > 30 µM | > 30 µM | > 30 µM | > 30 µM | > 30 µM | > 30 µM | > 30 µM
5 | C[C@H](N)[C@H](O)c1cccc(O)c1 [METARAMINOL] | > 10 µM | > 10 µM | > 10 µM | > 10 µM | > 10 µM | > 10 µM | > 10 µM | 12 µM | > 30 µM | > 10 µM | > 10 µM | > 10 µM
6 | COC(=O)C1=C(C)NC(C)=C(C(=O)OC(C)(C)CN(C)CCC(c2ccccc2)c2ccccc2)C1c1cccc([N+](=O)[O-])c1 (centres undefined) [LERCANIDIPINE] | > 30 µM | 0.046 µM | > 30 µM | > 30 µM | > 30 µM | 6.4 µM | > 30 µM | > 30 µM | > 30 µM | > 30 µM | 18.7 µM | 35.7 µM
7 | CCCC(=O)O[C@]1(C(=O)CO)CC[C@H]2[C@@H]3CCC4=CC(=O)CC[C@]4(C)[C@H]3[C@@H](O)C[C@@]21C [HYDROCORTISONE BUTYRATE] | > 10 µM | > 10 µM | > 10 µM | > 10 µM | > 10 µM | > 10 µM | > 10 µM | > 10 µM | > 30 µM | > 10 µM | > 10 µM | > 10 µM
